Results as given in patent US11052151B2, “Diagnosis and treatment of autism spectrum disorder” (California Institute of Technology, priority 2012, dated 2021).
Blank lines part the entries; values can stand above or below the molecule they belong to.

Tests used:
naïve wild-type mice [1] = test: 4EPS sufficiency experiment: marble burying; assay type: in vivo; conditions: 4EPS-treated versus saline-treated mice
Experimental: Marble burying is an elicited repetitive behavior in rodents analogous to those observed in autistic individuals (Silverman et al., 2010b). This test was conducted and analyzed according to methods described in Thomas et al., 2009 and Malkova et al., 2012. Mice were habituated for 10 minutes to a novel testing cage containing a 4 cm layer of chipped cedar wood bedding and then transferred to a new housing cage. 18 glass marbles (15 mm diameter) were aligned equidistantly 6×3 in the testing cage. Mice were returned to the testing cage and the number of marbles buried in 10 minutes was recorded.
(§1) Wildtype mice were injected i.p. with saline or 30 mg/kg 4EPS potassium salt daily from 3 to 6 weeks of age. A dose-response curve was generated by measuring serum 4EPS levels at various times after i.p. injection of 30 mg/kg 4EPS (FIG. 15C). Mice were behaviorally tested as described above from 6 to 9 weeks of age.

[2] = Serum 4EPS after i.p. injection; assay type: in vivo; conditions: single i.p. injection of 30 mg/kg potassium 4EPS, adult wild-type mice
Experimental: Authentic 4EPS and serum samples were analyzed by LC/MS using an Agilent […] HPLC system equipped with a photodiode array detector and interfaced to a model G1946C single quadrupole […] mass spectrometer. HPLC separations were obtained at 25° C. using an Agilent Zorbax XDB-C18 column (4.6 mm×50 mm×5 um particle size). The 4EPS ion was detected using selected ion monitoring for ions of m/z 200.9 and dwell time of 580 ms/ion, with the electrospray capillary set at 3 kV. […] For quantification of 4EPS in mouse sera, a dose-response curve was constructed by plotting the total ion count peak area for known concentrations of authentic potassium 4EPS against the analyte concentration (R^2=0.9998; FIG. 15B). Mouse serum samples were diluted four-fold with acetonitrile and centrifuged at 10,000 g at 4° C. for 3 minutes. 10 ul of supernatant was injected directly into the HPLC system.
as §1

naïve wild-type mice [3] = test: 4EPS sufficiency experiment: ultrasonic vocalizations; assay type: in vivo; conditions: 4EPS-treated versus saline-treated mice
Experimental: Male mice produce USVs in response to female mice as an important form of communication (Portfors, 2007). Adult male USV production in response to novel female exposure was measured according to methods described in Grimsley et al., 2011; Scattoni et al., 2011; and Silverman et al., 2010a. Adult males were single-housed one week before testing and exposed for 20 minutes to an unfamiliar adult female mouse each day starting four days prior to testing in order to provide a standardized history of sexual experience and to adjust for differences in social dominance. On testing day, mice were habituated to a novel cage for 10 minutes before exposure to a novel age-matched female. USVs were recorded for 3 minutes using the UltraSoundGate microphone and audio system (Avisoft Bioacoustics). Recordings were analyzed using Avisoft's SASLab Pro software after fast Fourier transformation at 512 FFT-length and detection by a threshold-based algorithm with 5 ms hold time. Data presented reflect duration and number of calls produced in the 3 minute session.
as §1

[4] = 4EPS sufficiency experiment: body weight; assay type: in vivo; conditions: 4EPS- versus control-treated mice
Experimental: as §1

naïve wild-type mice [5] = test: 4EPS sufficiency experiment: open field exploration; assay type: in vivo
Experimental: The open field test is widely used to measure anxiety-like and locomotor behavior in rodents. Mice were placed in 50×50 cm white Plexiglas boxes for 10 minutes. An overhead video camera recorded the session, and Ethovision software (Noldus) was used to analyze the distance traveled, and the number of entries and duration of time spent in the center arena (central 17 cm square).
as §1

naïve wild-type mice [6] = test: 4EPS sufficiency experiment: pre-pulse inhibition and startle; assay type: in vivo; conditions: 30 mg/kg i.p. daily
Experimental: PPI tests are used as a measure of sensorimotor gating and were conducted and analyzed according to the procedure described in Geyer and Swerdlow, 2001 and Smith et al., 2007. Briefly, mice were acclimated to the testing chambers of the SR-LAB startle response system (San Diego Instruments) for 5 minutes, presented with six 120 db pulses of white noise (startle stimulus) and then subjected to 14 randomized blocks of either no startle, startle stimulus only, 5 db prepulse with startle or 15 db prepulse with startle. The startle response was recorded by a piezo-electric sensor, and the percent PPI is defined as: [((startle stimulus only—5 or 15 db prepulse with startle)/startle stimulus only)*100].
as §1

ASD individuals = conditions: cited from earlier work
CNTNAP2 knockout mice = conditions: cited from earlier work
claudin 8 and claudin 15 [7] = test: In vitro colon culture with IL-6, claudin expression; assay type: cell-based, mice; conditions: in vitro colon organ cultures
Experimental: (§2) For in vivo assays, adult mice were gavaged with 5 ug carrier-free recombinant mouse IL-6 (eBioscience) in 1.5% sodium bicarbonate. At 4 hours post-gavage, 1 cm regions of distal, medial and proximal colon were dissected, washed in HBSS and processed for qRT-PCR, as described above. For in vitro assays, adult mice were sacrificed and 1 cm regions of distal, medial and proximal colon were dissected, washed and bisected for colon culture with 0-80 ng/ml IL-6 in complete RPMI media. After 4 hours of culture, colon pieces were harvested and processed for qRT-PCR, as described above.

claudin 8 and claudin 15 [8] = test: IL-6 oral gavage, colon claudin expression; design: species or system mice; conditions: in vivo
Experimental: as §2

[9] = 30 mg/kg i.p. daily, relative to vehicle-treated controls

marble burying (naïve wild-type mice [1]): no significant differences
serum 4EPS [2]: Time-dependent increases
USV behavior (naïve wild-type mice [3]): no significant differences
distance traveled in the open field (naïve wild-type mice [5]; [9]): comparable distances
time in the center arena (naïve wild-type mice [5]; [9]): less time
number of entries into the center of the field (naïve wild-type mice [5]; 30 mg/kg i.p. daily, versus vehicle-treated mice): no difference
PPI (naïve wild-type mice [6]; 5 db or 15 db pre-pulse): no significant alterations
intensity of startle in response to the unconditioned primary stimulus (naïve wild-type mice [6]; 120 db pulse): increased intensity of startle
Molecule: CCc1ccc(OS(=O)(=O)[O-])cc1.[K+] [4-ethylphenylsulfate]
weight [4]: no difference
anxiety-like behavior (naïve wild-type mice [5]; 30 mg/kg i.p. daily from 3 to 6 weeks of age): sufficient to induce anxiety-like behavior

Molecule: Cc1nc2n(c(=O)c1CCN1CCC(c3noc4cc(F)ccc34)CC1)CCCC2 [risperidone]
social behavior (ASD individuals): inability to improve social behavior
social behavior (CNTNAP2 knockout mice): inability to improve social behavior

B1: recombinant IL-6: carrier-free recombinant mouse IL-6 (eBioscience) (protein, UniProt P08505 25-211, looked up)
Interleukin-6: FPTSQVRRGDFTEDTTPNRPVYTTSQVGGLITHVLWEIVEMRKELCNGNSDCMNNDDALAENNLKLPEIQRNDGCYQTGYNQEICLLKISSGLLEYHSYLEYMKNNLKDNKKDKARVLQRDTETLIHIFNQEVKDLHKIVLPTPISNALLTDKLESQKEWLRTKTIQFILKSLEEFLKVTLRSTRQT
colon levels of claudin 8 and claudin 15 (claudin 8 and claudin 15 [7]): can modulate
colon levels of claudin 8 and claudin 15 (claudin 8 and claudin 15 [8]): can modulate
